Assay results: patent publication US10821115B2, “Compounds that inhibit Mcl-1 protein” (priority 2017, dated 2020)

How the values were obtained:
[1] = biological target: recombinant human Mcl-1 (residues 171-327) / Bim interaction (Homo sapiens (Human), UniProt Q07820); experiment: biochemical; format: binding; conditions: 0.1 nM Mcl-1(171-327), 0.05 nM biotin-Bim (51-76); read-out: Mcl-1 HTRF IC50
[2] = system: human multiple myeloma cell line, OPM-2; experiment: Cell viability assay (OPM-2 10 FBS), CellTiter-Glo; format: cell-based; conditions: Homo sapiens, OPM-2, 16 h, read-out: OPM-2 10% FBS IC50 IP, OPM-2 cells, 10% FBS, 16 h incubation
Procedure, shortened: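 3000 cells/well, RPMI 1640 + 10% FBS; serial compound dilutions, 16 h, 37 °C/5% CO2.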

Sequence of recombinant human Mcl-1 (residues 171-327) / Bim interaction (Q07820 171-327): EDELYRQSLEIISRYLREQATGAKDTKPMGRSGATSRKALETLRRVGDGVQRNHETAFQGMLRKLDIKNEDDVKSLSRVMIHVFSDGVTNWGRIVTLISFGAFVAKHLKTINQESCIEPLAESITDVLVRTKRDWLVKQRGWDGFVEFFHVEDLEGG

## CO[C@]1(CN2C[C@@H](C)N(C(C)C)[C@H](C)C2)/C=C/C[C@H](C)[C@@H](C)S(=O)(=O)NC(=O)c2ccc3c(c2)N(C[C@@H]2CC[C@H]21)C[C@@]1(CCCc2cc(Cl)ccc21)CO3 [Example 343, (1S,3′R,6′R,7′R,8′E,11′S,12′R)-6-chloro-7′-(((3R,5R)-3,5-dimethyl-4-(1-methylethyl)-1-piperazinyl)methyl)-7′-methoxy-11′,12′-dimethyl-3,4-dihydro-2H,15′H-spiro[naphthalene-1,22′-[20]oxa[13]thia[1,14]diazatetracyclo [14.7.2.0~3,6~.0~19,24~]pentacosa[8,16,18,24]tetraen]-15′-one 13′,13′-dioxide]
[1]
  IC50: 0.093 nM
[2]
  IC50: 94 nM

## COCCN(CCOC)C1CN(C[C@]2(OC)/C=C/C[C@H](C)[C@@H](C)S(=O)(=O)NC(=O)c3ccc4c(c3)N(C[C@@H]3CC[C@H]32)C[C@@]2(CCCc3cc(Cl)ccc32)CO4)C1 [Example 344, (1S,3′R,6′R,7′S,8′E,11′S,12′R)-7′-((3-(bis(2-methoxyethyl)amino)-1-azetidinyl)methyl)-6-chloro-7′-methoxy-11′,12′-dimethyl-3,4-dihydro-2H,15′H-spiro[naphthalene-1,22′-[20]oxa[13]thia[1,14]diazatetracyclo [14.7.2.0~3,6~.0~19,24~]pentacosa[8,16,18,24]tetraen]-15′-one 13′,13′-dioxide]
[1]
  IC50: 0.116 nM
[2]
  IC50: 57 nM

## CO[C@@]1(CN2CCN3CCOC[C@@H]3C2)/C=C/C[C@H](C)[C@@H](CCO)S(=O)(=O)NC(=O)c2ccc3c(c2)N(C[C@@H]2CC[C@H]21)C[C@@]1(CCCc2cc(Cl)ccc21)CO3 [Example 346, (1S,3′R,6′R,7′S,8′E,11′S,12′R)-6-Chloro-7′-((9aS)-hexahydropyrazino[2,1-c][1,4]oxazin-8(1H)-ylmethyl)-12′-(2-hydroxyethyl)-7′-methoxy-11′-methyl-3,4-dihydro-2H, 15′H-spiro[naphthalene-1,22′-[20]oxa[13]thia[1,14]diazatetracyclo[14.7.2.0-3,6˜.0˜19,24˜]pentacosa[8,16,18,24]tetraen]-15′-one 13′,13′-dioxide]
[1]
  IC50: 0.062 nM
[2]
  IC50: 66 nM

## CC(C)CO[C@@]1(CN2CCN3CCOC[C@@H]3C2)/C=C/C[C@H](C)[C@@H](C)S(=O)(=O)NC(=O)c2ccc3c(c2)N(C[C@@H]2CC[C@H]21)C[C@@]1(CCCc2cc(Cl)ccc21)CO3 [Example 349, (1S,3′R,6′R,7′S,8′E,11′S,12′R)-6-chloro-7′-((9aS)-hexahydropyrazino[2,1-c][1,4]oxazin-8(1H)-ylmethyl)-11′,12′-dimethyl-7′-(2-methylpropoxy)-3,4-dihydro-2H,15′H-spiro[naphthalene-1,22′-[20]oxa[13]thia[1,14]diazatetracyclo [14.7.2.0~3,6~.0~19,24~]pentacosa[8,16,18,24]tetraen]-15′-one 13′,13′-dioxide]
[1]
  IC50: 1.61 nM
[2]
  IC50: 7790 nM

## CC(C)CO[C@@]1(CN2CCN3CCCC[C@@H]3C2)/C=C/C[C@H](C)[C@@H](C)S(=O)(=O)NC(=O)c2ccc3c(c2)N(C[C@@H]2CC[C@H]21)C[C@@]1(CCCc2cc(Cl)ccc21)CO3 [Example 350, (15,3′R,6′R,7′S,8′E,11′S,12′R)-6-chloro-11′,12′-dimethyl-7′-(2-methylpropoxy)-7′-((9aR)-octahydro-2H-pyrido[1,2-a]pyrazin-2-ylmethyl)-3,4-dihydro-2H,15′H-spiro[naphthalene-1,22′-[20]oxa[13]thia[1,14]diazatetracyclo [14.7.2.0~3,6~.0~19,24~]pentacosa[8,16,18,24]tetraen]-15′-one 13′,13′-dioxide]
[1]
  IC50: 12.3 nM
[2]
  IC50: > 33300 nM
